According to patent US10857153B2, “Pyrimidine compounds containing acidic groups” (Apros Therapeutics, Inc., priority 2018, dated 2020):
pEC50: −log10 of the molar value.

Tests used:
[1] = target: T1, human TLR7 (Homo sapiens, UniProt Q9NYK1); assay: HEK-TLR7 assay (HEK-Blue hTLR7 cells, SEAP reporter); assay type: cell-based; conditions: 16 h
T1 construct: host or cells: HEK293 (HEK-Blue™ hTLR7)
T1 sequence (Q9NYK1 27-1049): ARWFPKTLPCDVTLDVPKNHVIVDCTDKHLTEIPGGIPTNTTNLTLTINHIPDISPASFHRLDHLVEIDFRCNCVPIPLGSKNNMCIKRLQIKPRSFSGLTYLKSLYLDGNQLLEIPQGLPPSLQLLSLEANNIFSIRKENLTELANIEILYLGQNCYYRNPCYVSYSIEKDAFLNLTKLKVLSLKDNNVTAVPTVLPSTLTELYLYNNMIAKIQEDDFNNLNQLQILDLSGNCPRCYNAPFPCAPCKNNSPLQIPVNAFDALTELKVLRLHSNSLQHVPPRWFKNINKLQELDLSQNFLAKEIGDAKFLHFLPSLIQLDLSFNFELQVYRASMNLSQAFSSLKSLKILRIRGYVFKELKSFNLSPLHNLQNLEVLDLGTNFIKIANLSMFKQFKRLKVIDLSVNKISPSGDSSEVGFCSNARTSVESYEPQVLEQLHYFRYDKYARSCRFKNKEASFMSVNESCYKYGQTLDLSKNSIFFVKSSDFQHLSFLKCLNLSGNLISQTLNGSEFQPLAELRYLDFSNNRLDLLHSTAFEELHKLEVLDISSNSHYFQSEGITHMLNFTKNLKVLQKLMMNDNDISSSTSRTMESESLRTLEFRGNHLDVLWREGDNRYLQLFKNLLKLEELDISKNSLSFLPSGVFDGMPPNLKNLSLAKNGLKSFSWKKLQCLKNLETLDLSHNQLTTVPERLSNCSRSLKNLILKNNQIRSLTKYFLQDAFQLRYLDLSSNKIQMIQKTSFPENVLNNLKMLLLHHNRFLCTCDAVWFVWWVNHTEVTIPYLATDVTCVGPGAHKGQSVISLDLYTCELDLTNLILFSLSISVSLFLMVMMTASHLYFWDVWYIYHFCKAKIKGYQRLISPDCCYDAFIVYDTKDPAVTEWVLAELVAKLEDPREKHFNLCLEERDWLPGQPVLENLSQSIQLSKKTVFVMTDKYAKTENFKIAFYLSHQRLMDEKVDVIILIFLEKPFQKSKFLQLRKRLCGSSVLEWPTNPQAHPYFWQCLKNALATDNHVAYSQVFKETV
Excerpt: HEK-Blue™ TLR7 cells were purchased from Invivogen (San Diego, Calif.). The following description was taken from the product information sheet.
“HEK-Blue™ hTLR7 cells are designed for studying the stimulation of human TLR7 (hTLR7) by monitoring the activation of NF-kB. HEK-Blue™ hTLR7 cells were obtained by co-transfection of the hTLR7 gene and an optimized secreted embryonic alkaline phosphatase (SEAP) reporter gene into HEK293 cells. The SEAP reporter gene is placed under the control of the IFN-b minimal promoter fused to five NF-kB and AP-1-binding sites. Stimulation with a TLR7 ligand activates NF-kB and AP-1 which induce the production of SEAP, which is detected by the HEK-Blue™ Detection cell culture medium.”
A typical assay protocol involved the following steps: • 1. Cells were cultured according to the product information sheet. • 2. 10 mM compound stock in DMSO were first diluted to 3 mM and then 3-fold serially diluted using DMSO to afford a 10-pt dilution. • 3. 3 μl of the diluted DMSO were added to 57 μl HEK-Blue™ Detection media for a further 20-fold dilution. • 4. 10 μl of the diluted compound in assay media were added into 40 μl cell culture (in HEK-Blue™ Detection media) in 384-well plate. Final cell concentration=8,000 cells per well. • 5. The plates were incubated at 37° C. in 5% CO2 for 16 h. SEAP was determined using a spectrophotometer at 620-655 nm.

[2] = Formulation preparation and solubility examination; assay type: physicochemical; conditions: 1 mg/mL in 0.5% carboxy methycellulose in water, pH 6-7
Experimental: The resulting formulations were vortexed and stored at 4° C. before dosing.

[3] = tested on: TLR7; assay: Pharmacodynamic experiment: serum IP-10 after intranasal dosing; assay type: in vivo; conditions: BALB/c mice, 60 micrograms intranasally, 5 hours
Experimental: IP-10 is a biomarker of TLR7 target activation. Higher production levels of IP-10 is an indication of higher target engagement in vivo. In this study, 3 BALB/c mice per group were dosed intranasally with 60 micrograms of Compound 1B, 2B, 3B, Compound 50 or AZD8848. The test compounds were formulated as a 1 mg/mL solution in 0.5% carboxy methycellulose. Animals were sacrificed after 5 hours. Serum IP-10 concentrations were measured using a commercial ELISA kit purchased from Meso Scale Discovery.

[4] = tested on: CT26 cells stably expressing luciferase; assay: CT26 metastatic lung cancer model; conditions: for median survival time: intranasal, in combination with anti-PD-L1, twice a week, 8 doses; for mean bioluminescence (tumor burden) versus anti-PD-L1 or anti-PD-L1 with Compound 50 or AZD8848: in combination with anti-PD-L1, for more than 20 days after injection of tumor cells
Experimental: To establish a lung cancer model, 5e5 CT26 cells stably expressing luciferase (Imanis Life Sciences) were injected intravenously into female Balb/c mice on Day 0. On Day 4 post challenge, mice were anesthetized and subjected to whole body bioluminescent imaging (IVIS; Perkin Elmer) to determine tumor burden and in vivo location. Mice with detectable lung tumors were enrolled into the study and randomized such that the average bioluminescence and variance is equivalent amongst all of the study groups. Animals were dosed twice a week for a total of 8 doses with the indicated treatments, and imaged weekly to determine total tumor burden over the course of the treatment.
The known TLR7 compound AZD8848 was used as a comparator and administered in combination with anti-PD-L1 to the mice. […] Each treatment group contained 10 mice.

CCCCOc1nc(N)c2[nH]c(=O)n(CCCN(CCCN3CCOCC3)Cc3cccc(CC(=O)OC)c3)c2n1 [AZD8848, reference compound]
pEC50 [1]: 7.43 | appearance of formulation (solubility) [2]: turbid suspension | mean serum IP-10 concentration [3]: 96 pg/mL | median survival time [4]: 23 days

CCCC[C@@H](CCS(C)(=O)=O)Nc1nc(N)nc(CCC(=O)O)c1Cc1cc(Cc2nn[nH]n2)ccc1OC [Compound 1B, (S)-3-(5-(5-((2H-tetrazol-5-yl)methyl)-2-methoxybenzyl)-2-amino-6-((1-(methyl-sulfonyl)heptan-3-yl)amino)pyrimidin-4-yl)propanoic acid]
pEC50 [1]: 6.64 | mean serum IP-10 concentration [3]: about 700 pg/mL | mean bioluminescence (tumor burden) versus anti-PD-L1 or anti-PD-L1 with Compound 50 or AZD8848 [4]: lower | median survival time [4]: 36 days

CCCC[C@@H](CCO)Nc1nc(N)nc(CCC(=O)O)c1Cc1cc(CC(=O)O)ccc1OC [Compound 2B, (S)-3-(2-amino-5-(5-(carboxymethyl)-2-methoxybenzyl) -6-((1-hydroxyheptan-3-yl)amino)pyrimidin-4-yl)propanoic acid]
pEC50 [1]: 6.57 | mean serum IP-10 concentration [3]: ~150 pg/mL | mean bioluminescence (tumor burden) versus anti-PD-L1 or anti-PD-L1 with Compound 50 or AZD8848 [4]: lower | median survival time [4]: 32 days

CCCC[C@@H](CCO)Nc1nc(N)nc(CCC(=O)O)c1Cc1cc(Cc2nn[nH]n2)ccc1OC [Compound 3B, (S)-3-(5-(5-((2H-tetrazol-5-yl)methyl)-2-methoxybenzyl)-2-amino-6-((1-hydroxyheptan-3-yl)amino)pyrimidin-4-yl)propanoic acid]
pEC50 [1]: 6.57 | mean serum IP-10 concentration [3]: ~1300 pg/mL | mean bioluminescence (tumor burden) versus anti-PD-L1 or anti-PD-L1 with Compound 50 or AZD8848 [4]: lower | median survival time [4]: 36 days

CCCC[C@@H](CCS(C)(=O)=O)Nc1nc(N)nc(CCC(=O)O)c1Cc1cc(CC(=O)O)ccc1OC [Compound 50, reference compound]
pEC50 [1]: 6.59 | appearance of formulation (solubility) [2]: clear | mean serum IP-10 concentration [3]: 125 pg/mL | median survival time [4]: 29 days
